# Values quoted from earlier work in patent publication EP1017675B1, “HIGHLY LIPOPHILIC CAMPTOTHECIN DERIVATIVES” (BIONUMERIK PHARMACEUTICALS, INC., priority 1997, dated 1998).
# Conditions: parenterally administered; fraction of the lactone form's potency
smiles,measurement,value
CC[C@@](O)(C(=O)O)c1cc2n(c(=O)c1CO)Cc1cc3ccccc3nc1-2 [carboxylate species],antitumor potency relative to the lactone form,one-tenth
